The numbers were not newly measured in patent US8247435B2, “Formulations for treating human and animal diseases” (priority 2009, dated 2012), which cites them from elsewhere.

“Also recorded” adds a separate entry of the source. Read-outs that look alike come from different tables or passages of the source.

The subject of data set [1] is VEGF-dependent angiogenesis. The settings on record: VEGF-expressing CAMs.
For data set [2] the following is noted: cancer patients, 145 patients.
Another data set has as its system normal bladder cells. The settings on record: normal physiological range of urine excretion (10 μg/ml).
The subject of data set [3] is Reuber H35 hepatoma cells. The settings on record: radiation in the presence of genistein; irradiation alone factor 20.
The subject of data set [4] is human umbilical vein endothelial cells (HUVECs). The settings on record: 10 microM genistein.
Data set [5] concerns HTB-186 medulloblastoma cell line.
Test in data set [6]: not given
This is another data set of the same source.

For data set [7] the following is noted: 300 mg/day, 4 months.
The subject of data set [8] is non-small cell lung cancer. The settings on record: with carboplatin and paclitaxel.
The test system of data set [9] is non-small cell lung cancer.
For data set [10] the following is noted: 500 mg/m^2/day.
In another data set the test system is ocular neovasculation. The settings on record: primates, systemic, twice weekly.
Data set [11] concerns human vascular endothelial cells. The settings on record: doses as low as.
Another data set relates to Lewis lung carcinoma. The settings on record: mice, day 20.
For data set [12], the system named is rat 13762 mammary carcinoma. The settings on record: single agent, 40 mg/kg.
Test in data set [13]: not given
The source holds these as a separate data set.

The conditions of data set [14]: highest dose 3000 mg/day.
The conditions of data set [15]: oral; MS patients on immunosuppressive or immunomodulatory therapies.
The conditions of data set [16]: humans; not identified at doses used.
Another data set deals with Candida. The settings on record: 600 mg orally 3 times a day for 15 days.
Test in data set [17]: not given
This is another data set of the same source.

Take angiostatin: the “total vessel number relative to VEGF controls” value in data set [1] is given as “nearly half”.
Regarding `O=c1[nH]c(=O)n(C2CCCO2)cc1F` (stereo not drawn) [tegafur alone, tegafur], in data set [2], the 50% survival time is listed as 92 days.
Turning to `O=c1c(-c2ccc(O)cc2)coc2cc(O)cc(O)c12` [genistein, 4′5,7-trihydroxyisoflavone], the “toxicity to normal bladder cells” value in the data set with normal bladder cells is listed as “not exhibit toxicity”. Besides, the mean plasma/serum genistein is given as 5.7 nmol/L (American study, Western diet) and 248 nmol/L (Japanese study). Besides, where the note is “Japanese study”, the “plasma/serum genistein, range” value is 90 to 1204 nmol/L. The excretion half-life result (with soy supplementation) is “seven”. In addition, in [3], the “factor by which survival was reduced” value is 10000. For the same compound, the “number of genes with altered expression of more than two fold” value in data set [4] was 256. In addition, the “increase of the antiproliferative effect of cisplatin” value in data set [5] was 1.3 fold.
Regarding `Oc1ccc(C=Cc2cc(O)cc(O)c2)cc1` [resveratrol, 3,4′,5-trihydroxystilbene], in the data set on cells in vitro, the “levels required for cancer chemopreventive effects in cells in vitro” value is recorded as “at least 5 μM”.
Turning to Cyanocobalamin [vitamin B12], the “amount excreted in the normal urine daily” value in data set [6] (in vivo) is listed as “About 30 mcg”. For the same compound, in data set [6] (injected in a large dose up to 100 mcg), the quantity excreted entry is “up to 90%”.
As to `O=C(O)CCCCC1CCSS1` (stereo not drawn) [ALA, alpha-lipoic acid], the “patients who were responders or high responders” value in data set [7] is reported as 22 of the 39.
`CC(C)[C@@H](CC[C@@H](C)[C@H]1CC[C@H]2[C@@H]3[C@H](O)C[C@H]4C[C@@H](NCCCNCCCCN)CC[C@]4(C)[C@H]3CC[C@]12C)OS(=O)(=O)O` [squalamine]: the “objective responses, patients” value in data set [8] (300 mg/m^2/day for one or more cycles, response = 50% or greater reduction in tumor size) was 36%. In data set [8] (all patients (11 of 36)), the “patients with an objective response” value is “Thirty-one”. Besides, the “patients with dose-limiting toxicity” value in data set [9] (400 mg/m^2/day, arthralgia, myalgia, neutropenia) is given as “two of three”. Also, the tolerability entry in data set [9] (continuously daily for 5 days with paclitaxel and carboplatin on day 1) is “well tolerated”; in data set [10], “well tolerated”; in data set [13] (384 mg/m^2/day, patients without prior exposure to squalamine) it was “well-tolerated”. In addition, in data set [10], the “plasma concentrations relative to those required for antiangiogenic effects in preclinical studies” value is reported as “at least an order of magnitude higher”. For the same compound, the “dose producing inhibition of ocular neovasculation and partial regression of new vessels” value with ocular neovasculation is given as 12 mg/m^2. For the same compound, the “dose that halted proliferation of human vascular endothelial cells” value in data set [11] was 160 nM. For the same compound, the “number of lung metastases relative to controls” value in the data set with Lewis lung carcinoma is “reduced to half; also recorded: reduced by half”. In data set [12], the tumor growth delay entry is given as “modest effect”. In addition, the best-tolerated dose in [13] (continuous intravenous infusion over 120 h, every 14 days, 19 patients) is recorded as 192 mg/m^2/day.
As to `CC(=O)O[C@H](CC(=O)[O-])C[N+](C)(C)C` [ALC, Acetyl-L-carnitine], the “side effects and toxicities” value in data set [14] is “no toxicities were noted”. Besides, the “patients with decreased fatigue intensity” value in data set [15] is listed as 63%.
For `COc1cc(/C=C/C(=O)CC(=O)/C=C/c2ccc(O)c(OC)c2)ccc1O` [curcumin], in [16], the maximum tolerated dose was no less than 8000 mg per day.
Consider `CC(=O)N[C@@H](CS)C(=O)O` [NAC, N-Acetyl Cysteine], for which the “total vessel number relative to VEGF controls” value in data set [1] is reported as “nearly half”. The “antifungal activity of peripheral blood monocytes (PBM)” value in the data set with Candida is “significantly enhanced”.
Consider `COC1=C(OC)C(=O)C(C/C=C(\C)CC/C=C(\C)CC/C=C(\C)CC/C=C(\C)CC/C=C(\C)CC/C=C(\C)CC/C=C(\C)CC/C=C(\C)CC/C=C(\C)CCC=C(C)C)=C(C)C1=O` [CoQ10, ubiquinone], for which the “prevalence of memory loss on most recent follow-up” value in data set [17] (from 8% on initial visit) was 4%. Moreover, the “prevalence of peripheral neuropathy on most recent follow-up” value in data set [17] (from 10% on initial visit) is reported as 2%. The “prevalence of dyspnea on most recent follow-up” value in [17] (from 58% on initial visit) is given as 12%. In addition, the “prevalence of myalgia on most recent follow-up” value in [17] (from 64% on initial visit) is listed as 6%. The “prevalence of fatigue on most recent follow-up” value in data set [17] (from 84% on initial visit, average 240 mg/day, statin discontinued) is recorded as 16%.
